Measurements from ChEMBL document CHEMBL4837230, “Thiophene-2-carboxamide derivatives of anthraquinone: A new potent antitumor chemotype” (Eur J Med Chem, 2021).
Activity calls are given as the source filed them. No cut-off for these calls is given here.

Legend:
HCT-116 = assay: Cytotoxicity against p53 knock out human HCT-116 cells assessed as reduction in cell viability incubated for 72 hrs by MTT assay; format: functional, cell-based; details: HCT-116, 72 h
K562 [1] = assay: Induction of apoptosis in human K562 cells assessed as necrotic cells after 24 hrs by Annexin V-APC/PI double staining based flow cytometric analysis (reference value: 6.3%); format: functional
K562 [2] = assay: Induction of cell cycle arrest in human K562 cells assessed as increase in accumulation at sub-G1 phase at 5 uM after 24 hrs by propidium iodide staining based flow cytometric analysis (reference value: 8.4%); format: functional
K562 [3] = assay: Induction of apoptosis in human K562 cells assessed as viable cells after 24 hrs by Annexin V-APC/PI double staining based flow cytometric analysis (reference value: 91%); format: functional
K562 [4] = assay: Induction of cell cycle arrest in human K562 cells assessed as increase in accumulation at sub-G1 phase at 2.5 uM after 24 hrs by propidium iodide staining based flow cytometric analysis (reference value: 8.4%); format: functional
K562 [5] = assay: Induction of mitochondrial membrane potential loss in human K562 cells at 2.5 uM after 3 hrs by Mitotracker Red dye based flow cytometric analysis(reference value: 7.8 %); format: functional
K562 [6] = assay: Induction of mitochondrial membrane potential loss in human K562 cells at 7.5 uM after 6 hrs by Mitotracker Red dye based flow cytometric analysis; format: functional, cell-based
U-937 = assay: Cytotoxicity in human U-937 cells assessed as reduction in cell viability incubated for 72 hrs by MTT assay; format: functional, cell-based; details: U-937, 72 h
K562 [7] = assay: Induction of cell cycle arrest in human K562 cells assessed as increase in accumulation at sub-G1 phase at 5 uM after 48 hrs by propidium iodide staining based flow cytometric analysis (reference value: 8.4%); format: functional
[8] = Cytotoxicity in human DND41 cells assessed as reduction in cell viability incubated for 72 hrs by MTT assay; format: functional, cell-based; details: DND41, 72 h
[9] = Drug localization in nuclei of mouse NIH3T3 cells at 1 uM incubated for 5 to 60 mins by Hoechst 33258 staining based laser confocal microscopy; format: ADME, cell-based; details: nih3t3, 1 µM, time 5-60 min
[10] = target: T1, DNA topoisomerase 1 (Homo sapiens) (UniProt P11387); assay: Inhibition of topoisomerase 1 (unknown origin) assessed as relaxation of supercoiled plasmid pBR322 DNA at 1 to 5 uM incubated for 30 mins by electrophoresis; details: dose 1-5 µM
T1 sequence (whole entry): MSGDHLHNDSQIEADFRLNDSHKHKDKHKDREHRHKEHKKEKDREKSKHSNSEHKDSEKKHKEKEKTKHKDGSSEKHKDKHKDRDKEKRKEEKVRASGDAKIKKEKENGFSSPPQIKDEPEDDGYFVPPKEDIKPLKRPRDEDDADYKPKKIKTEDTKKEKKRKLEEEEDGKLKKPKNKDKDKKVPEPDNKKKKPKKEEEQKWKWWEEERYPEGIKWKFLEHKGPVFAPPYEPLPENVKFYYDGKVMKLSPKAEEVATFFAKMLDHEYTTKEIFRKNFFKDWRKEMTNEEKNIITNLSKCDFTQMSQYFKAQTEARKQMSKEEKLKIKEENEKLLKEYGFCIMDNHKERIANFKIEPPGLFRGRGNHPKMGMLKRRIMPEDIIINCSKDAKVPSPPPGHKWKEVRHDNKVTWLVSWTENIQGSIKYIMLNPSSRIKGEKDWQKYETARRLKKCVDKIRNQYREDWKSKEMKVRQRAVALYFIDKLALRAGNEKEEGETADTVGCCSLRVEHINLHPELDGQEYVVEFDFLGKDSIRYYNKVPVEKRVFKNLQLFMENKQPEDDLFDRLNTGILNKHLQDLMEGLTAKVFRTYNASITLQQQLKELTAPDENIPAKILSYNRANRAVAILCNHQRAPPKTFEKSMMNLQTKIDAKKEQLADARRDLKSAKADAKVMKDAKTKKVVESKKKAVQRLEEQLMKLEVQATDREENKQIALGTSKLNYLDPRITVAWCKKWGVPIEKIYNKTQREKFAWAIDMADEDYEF

K562 [11] = assay: Induction of cell cycle arrest in human K562 cells assessed as increase in accumulation at G0/G1 phase at 2.5 uM after 2 hrs by flow cytometric analysis (reference value: 46.5%); format: functional
HeLa = assay: Cytotoxicity in human HeLa cells assessed as reduction in cell viability incubated for 72 hrs by MTT assay; format: functional, cell-based
Fibroblast = assay: Cytotoxicity in human Fibroblast cells assessed as reduction in cell viability incubated for 72 hrs by MTT assay; format: functional, cell-based
K562 [12] = assay: Induction of cell cycle arrest in human K562 cells assessed as increase in accumulation at G0/G1 phase at 2.5 uM after 4 hrs by flow cytometric analysis (reference value: 19.2%); format: functional
K562 [13] = assay: Induction of ROS generation in human K562 cells at 2.5 uM after 15 to 75 mins by Deep Red dye based flow cytometry method; format: functional, cell-based; details: time 15-75 min
CAPAN-1 = assay: Cytotoxicity in human CAPAN-1 cells assessed as reduction in cell viability incubated for 72 hrs by MTT assay; format: functional, cell-based; details: CAPAN-1, 72 h
K562 [14] = assay: Induction of apoptosis in human K562 cells assessed as viable cells after 3 hrs by Annexin V-[…]/PI double staining based flow cytometric analysis (reference value: 91%); format: functional
K562 [15] = assay: Induction of cell cycle arrest in human K562 cells assessed as increase in accumulation at sub-G1 phase at 2.5 uM after 6 hrs by flow cytometric analysis (reference value: 22.1%); format: functional
[16] = Cytotoxicity in human K562/4 cells assessed as reduction in cell viability incubated for 72 hrs by MTT assay; format: functional, cell-based; details: K562/4, 72 h
[17] = Drug localization in lysosome of mouse NIH3T3 cells at 1 uM incubated for 60 mins by lyso-tracker red based confocal microscopic method; format: ADME, cell-based; details: nih3t3, 1 h
HL-60 = assay: Cytotoxicity in human HL-60 cells assessed as reduction in cell viability incubated for 72 hrs by MTT assay; format: functional, cell-based; details: HL-60, 72 h
K562 [18] = assay: Induction of apoptosis in human K562 cells assessed as activation of casapse-3 cleavage at 2.5 uM measured after 6 hrs by Western blot analysis; format: functional, cell-based
K562 [19] = assay: Induction of cell cycle arrest in human K562 cells assessed as increase in accumulation at G2/M phase at 2.5 uM by flow cytometric analysis (reference value: 11.8%); format: functional
K562 [20] = assay: Cytotoxicity against human K562 cells in presence of NAC; format: functional, cell-based
[21] = Drug localization in mitochondria of mouse NIH3T3 cells at 1 uM measured after 5 mins by MitoTracker red based confocal microscopic method; format: ADME; details: nih3t3, 5 min
K562 [22] = assay: Induction of apoptosis in human K562 cells assessed as activation of casapse-9 cleavage at 2.5 uM measured after 6 hrs by Western blot analysis; format: functional, cell-based
K562 [23] = assay: Cytotoxicity in human K562 cells assessed as reduction in cell viability at 1 uM incubated with compound for 60 mins followed by cell washing and measured after 72 hrs by propidium iodide staining based flow cytometric analysis; format: functional
K562 [24] = assay: Induction of cell cycle arrest in human K562 cells assessed as increase in accumulation at G2/M phase at 2.5 uM after 2 hrs by flow cytometric analysis (reference value: 15.2%); format: functional

Work on `N[C@H]1CCN(C(=O)c2cc3c(O)c4c(c(O)c3s2)C(=O)c2ccccc2C4=O)C1` yielded an IC50 (HCT-116) of 500 nM, an Activity (K562 [1]) of 48.8% and an Activity (K562 [2]) of 78.4%. For the same compound, the Activity (K562 [3]) was 1.8%, the Activity (K562 [4]) was 76.7% and the Activity (K562 [5]) was 19.8%. The Activity (K562 [6]) was “inactive”, the IC50 (U-937) was 200 nM and the Activity (K562 [7]) was 89.7%. The IC50 [8] was 400 nM, the Drug uptake [9] was “Not Active” and the inhibition [10] was “inactive”. For the same compound, the Activity (K562 [11]) was 40.4%, the IC50 (HeLa) was 400 nM and the IC50 (Fibroblast) was 1400 nM. The Activity (K562 [12]) was 28.1%, the Activity (K562 [13]) was “inactive” and the IC50 (CAPAN-1) was 700 nM. It also gave an Activity (K562 [14]) of 47.9%, an Activity (K562 [15]) of 24.6% and an IC50 [16] of 400 nM. For the same compound, the Drug uptake [17] was “Active”, the IC50 (HL-60) was 300 nM and the Activity (K562 [18]) was “Active”. The Activity (K562 [19]) was 14%, the Activity (K562 [20]) was “Active” and the Drug uptake [21] was “Not Active”. For the same compound, the Activity (K562 [22]) was “Active”, the Activity (K562 [23]) was 6.3% and the Activity (K562 [24]) was 15.9%.
